Test results as given in patent US20050208197A1, “Refreshment capable of stimulating movement of digestive tract” (priority 2002, published 2005).
pIC50: −log10 of the molar value.

Tests used:
[1] = Water solubility of the isolated active substances; format: physicochemical
Source text: In another aspect, the present invention provides a method for separating/purifying the active substances α and β. Specifically, the method includes freeze-drying beer, which serves as the starting material, to remove volatile components and collect non-volatile components; subjecting the non-volatile components to a chromatography using synthetic absorbent to remove unadsorbed components and collect adsorbed components in a crude fraction containing concentrated active substances; subjecting the crude fraction to a weakly acidic cation exchange chromatography to remove unadsorved components; eluting the active substances with acidic methanol (methanol/hydrochloric acid); subjecting the eluate to gel filtration chromatography using 0.01N hydrochloric acid to obtain a purified fraction; subjecting the purified fraction to C18 high performance liquid chromatography (ODS-HPLC) for further purification to isolate the two active substances. The active substances so obtained were water-soluble.

[2] = target: T1, human muscarinic M3 receptors (Homo sapiens, UniProt P20309); experiment: Test for binding activity to muscarinic M3 receptors ([3H]4-DAMP displacement)
T1 construct: expressed in transfected cells; host or cells: CHO (Chinese hamster ovary) cells, membrane preparation
Experimental: The mixture was then incubated at 22° C. for 60 min. Subsequently, the reaction mixture was filtered through a glass fiber filter (GF/B, PACKARD) while aspirated. Once the reaction came to an end, the mixture was washed several times with ice-chilled buffer. A scintillation cocktail (Microscint O, PACKARD) was then added to the filter, and the residual radioactivity was measured by a liquid scintillation counter (Topcount, PACKARD).

stomach emptying in mice = experiment: Stomach emptying in mice (phenol red test feed); format: in vivo; conditions: oral, dose-dependent, P<0.05 vs distilled water, FIG. 15
Experimental: Using a stomach tube, ddY line mice (10 animals in each group) were orally administered each of distilled water, the active substances α and β following an 18-hour fasting period. 60 minutes after administration, each animal was orally administered a test feed (0.2 mL/animal; 1.5% methylcellulose solution containing 0.05% phenol red) using the same technique. After 15 minutes, the animals were sacrificed by cervical dislocation and the stomachs were removed. The stomachs, along with their contents, were then homogenized in 10 mL 0.1N NaOH and the homogenates were allowed to stand for 1 hour at room temperature. To 1 mL of the resulting supernatant, 0.1 mL 20% trichloroacetic acid was added and the supernatant was centrifuged to precipitate proteins. Subsequently, 0.5 ml of the resulting supernatant was collected and 0.5 mL 0.5N NaOH was added to color the solution. The absorbance of the solution at 560 nm was measured to determine the amount of phenol red remaining in the stomach. The rate of stomach emptying was determined by the following equation: Stomach emptying rate (%)=(A−B)/A×100 where ‘A’ is the amount of phenol red in the stomach immediately after the administration of the test feed; and ‘B’ is the amount of phenol red remaining in the stomach 15 minutes after the administration of the test feed. 2. Results

T1 sequence (P20309 whole entry): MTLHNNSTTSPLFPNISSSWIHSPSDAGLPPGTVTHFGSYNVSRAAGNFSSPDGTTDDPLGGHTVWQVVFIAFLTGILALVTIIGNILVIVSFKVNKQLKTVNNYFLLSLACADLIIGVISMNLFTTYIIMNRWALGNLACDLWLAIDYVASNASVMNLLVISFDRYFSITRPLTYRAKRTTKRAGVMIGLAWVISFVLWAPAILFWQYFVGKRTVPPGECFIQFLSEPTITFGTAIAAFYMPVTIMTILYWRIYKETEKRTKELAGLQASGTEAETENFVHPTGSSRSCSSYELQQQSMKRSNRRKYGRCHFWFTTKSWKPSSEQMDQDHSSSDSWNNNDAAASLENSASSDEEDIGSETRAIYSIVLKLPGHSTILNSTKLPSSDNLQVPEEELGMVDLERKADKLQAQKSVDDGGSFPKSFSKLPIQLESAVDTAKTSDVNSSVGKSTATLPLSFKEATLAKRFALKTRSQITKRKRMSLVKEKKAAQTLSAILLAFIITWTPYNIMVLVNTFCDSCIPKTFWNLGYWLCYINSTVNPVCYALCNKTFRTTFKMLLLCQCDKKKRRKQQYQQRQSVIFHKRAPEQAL

Structure (SMILES) | solubility in water [1] | pIC50 [2] | stimulation of stomach emptying (stomach emptying in mice; 0.1 and 0.3 mg/kg) | stimulation of stomach emptying (stomach emptying in mice; 0.3 and 1.0 mg/kg)
N=C(N)NCCCCNC(=O)/C=C/c1ccc2c(c1)[C@H](C(=O)NCCCCNC(=N)N)[C@H](c1ccc(O)cc1)O2 [active substance α] | water-soluble | 5.93 | significantly stimulated stomach emptying | –
N=C(N)NCCCCNC(=O)/C=C/c1ccc2c(c1)[C@@H](C(=O)NCCCCNC(=N)N)[C@H](c1ccc(O)cc1)O2 [active substance β] | water-soluble | 5.38 | – | significantly stimulated stomach emptying
